Experimental data reported in patent US7531570B2, “Treatment of diseases using ICE inhibitors” (Vertex Pharmaceuticals Incorporated, priority 2004, dated 2009).
pIC50: −log10 of the molar value.

How the values were obtained:
[1] = system: LPS-stimulated IL-18 release from PBMCs of FCAS patients; assay: LPS-stimulated IL-18 release from PBMCs of patients with FCAS; assay type: cell-based, human
Excerpt: (§1) Inhibition by Compound 7 of LPS-Stimulated IL-1β and IL-18 Release from PBMCs of Patients with FCAS Compared with Healthy Controls.
(§2) FCAS patients from 3 families were studied along with healthy controls. The FCAS patients expressed 3 different CIAS1 gene mutations. […] (Neven B, Callebaut I, Prieur A M, Feldmann J, Bodemer C, Lepore L, Derfalvi B, Benjaponpitak S, Vesely R, Sauvain M J, Oertle S, Allen R, Morgan G, Borkhardt A, Hill C, Gardner-Medwin J. Fischer A, de Saint Basile G. Molecular basis of the spectral expression of CIAS1 mutations associated with phagocytic cell-mediated autoinflammatory disorders CINCA/NOMID, MWS, and FCU. Blood. 2004; 103(7): 2809-15).
(§3) Whole blood samples were collected from patients with FCAS and from healthy volunteer controls and cultured in vitro. The production of IL-1β was evaluated under normal, unstimulated conditions and in the presence of lipopolysaccharide at a range of concentrations from 10-10,000 ng/mL. Compound 7 was added to the cultures at concentrations of 30-30,000 nM to observe its ability to inhibit the production of IL-1β and IL-18 by cells from patients with FCAS or healthy volunteers. FIG. 1 illustrates the results of these experiments.
FIG. 1C illustrates the release of IL-18 by PBMCs from FCAS patients or control subjects after 24 hrs exposure to LPS in the absence or presence of 10 μM compound 7. […]

[2] = system: LPS-stimulated IL-1β release from PBMCs from normal subjects; assay: LPS-stimulated IL-1β release from PBMCs of healthy controls; assay type: cell-based; details: Homo sapiens, PBMC, 10 ng/ml LPS, 24 hours, compound 0.03-30 μM, ELISA, FIG. 1A, read-out: IC50 for inhibition of LPS-stimulated IL-1β release
Description: as §1, §3
(§4) More specifically, in FIG. 1A, PBMCs from FCAS patients and normal controls were incubated with 10 ng/ml LPS in the presence of increasing concentrations of compound 7 (0.03-30 μM) for 24 hours. IL-1β in cell culture media was measured by ELISA and the results for each subject were normalized to the level of IL-1β release in the absence of compound 7. Results were reported in mean±SEM, for 3 FCAS patients and 5 control patients. LPS-stimulated IL-1β was inhibited by compound 7 with potency very similar to that of PBMCs from normal subjects (IC50 value˜1 μM).

MWS patients = assay: Open-label clinical trial: clinical response of 4 MWS patients to compound 7; assay type: in vivo, human
Description: Clinical Response of 4 MWS Patients to 900 mg Compound 7 Administered Orally Three Times Daily for 14 Days.
Four patients with MWS were enrolled into an open-label clinical trial to receive treatment with compound 7.
Compound 7 was administered orally at a dose of 900 mg 3 times daily for 14 days.
Specifically, in FIG. 3A, serum interleukin-18 (IL-18) was measured before (day −9 and day 0 (first point)), during (day 0 (second point), day 7 and day 14, (first point)) and after (day 14 (second point) and day 21) treatment with compound 7. On average, serum IL-18 levels were reduced by 55% at day 14. Data were reported in mean±SEM from 4 patients. Baseline levels of serum IL-18 were 170-370 pg /mL and were only slightly elevated relative to those typically observed in healthy control subjects.
In FIG. 3B, Serum amyloid A (SAA) and C-reactive protein (CRP) were measured before, during and after treatment with compound 7, and the amounts of SAA and CRP were reduced on average by 75% and 65%, respectively. Baseline levels of SAA were 150-650 mg/L and of CRP were 20-90 mg/L, both considerably elevated relative to healthy control subjects.
FIG. 3C illustrates that the self-reported patient total symptom scores were reduced on average by 60% during treatment. Individual symptoms (rash, fever/chills, arthralgia/myalgia, eye discomfort, fatigue) were rated daily by patients to be absent (O), minimal (1), mild (2), moderate (3) or severe (4) and the total score was calculated as the sum of individual symptom scores (range 0-20). Patients were experiencing mild-moderate symptoms at the beginning of treatment (scores 10-15), which were reduced to a minimal level (scores about 5) during treatment with compound 7.

[3] = system: LPS-stimulated IL-1β release from PBMCs from MWS patients; assay: LPS-stimulated IL-1β release from PBMCs from MWS patients; assay type: cell-based, human; details: PBMCs from 4 MWS patients, 10 ng/ml LPS, compound 0.03-10 μM, 24 hour, ELISA, FIG. 2
Description: Inhibition by Compound 7 of LPS-Stimulated IL-1β Release from PBMCs from 4 MWS Patients Incubated with 10 ng/ml LPS in the Presence of Increasing Concentrations of Compound 7 (0.03-10 μM) for 24 Hour.
as §3, with “with MWS” for “with FCAS and from healthy volunteer controls”, “of 30-10,000” for “of 30-30,000”, “IL-1β” for “IL-1β and IL-18”, “with MWS” for “with FCAS”, “FIG. 2” for “FIG. 1”
More specifically, in FIG. 2, IL-1β in cell culture media was measured by ELISA and the results for each subject were normalized to the level of IL-1β release in the absence of compound 7. Results were reported individually for each of the 4 MWS patients.

[4] = system: LPS-stimulated IL-1β release from PBMCs of FCAS patients; assay: LPS-stimulated IL-1β release from PBMCs of patients with FCAS; assay type: cell-based, human
Excerpt: as §1, §2, §3, §4
FIG. 1B illustrates the release of IL-1β by PBMCs from FCAS patients or control subjects after exposure to LPS for 24 hours in the absence or presence of 10 μM compound 7. Results were reported in mean±SEM for 7 FCAS patients and 5 control patients. […]

patients with MWS = details: cited from earlier work
[5] = 900 mg orally three times daily for 14 days, MWS patients, FIG. 3B

| Compound | LPS-stimulated IL-18 release in presence of compound ([1]; 10 μM compound, LPS 24 hrs, PBMCs from 3 FCAS patients vs 3 controls, FIG. 1C) | Potency of blocking IL-18 secretion, FCAS versus control subjects ([1]; LPS-stimulated cells, FIG. 1) | pIC50 [2] | Reduction of C-reactive protein (CRP) (average) (MWS patients; [5]) [%] | Reduction of serum amyloid A (SAA) (average) (MWS patients; [5]) [%] | Reduction of serum interleukin-18 (average) (MWS patients; 900 mg orally three times daily, at day 14, 4 MWS patients, FIG. 3A) [%] | Reduction of self-reported patient total symptom scores (average) (MWS patients; 900 mg orally three times daily, during treatment, MWS patients, FIG. 3C) [%] | Tolerability (MWS patients; four MWS patients, 14-day treatment period, 900 mg 3 times daily orally) | Total symptom score during treatment (MWS patients; sum of 5 symptom scores, range 0-20, scores 10-15 at beginning of treatment) | Inhibition of LPS-stimulated IL-1β release, potency versus normal subjects [3] | LPS-stimulated IL-1β release in presence of compound ([4]; 10 μM compound, LPS 24 hours, PBMCs from 7 FCAS patients vs 5 controls, FIG. 1B) | pIC50 ([4]; Homo sapiens, PBMC, PBMCs from FCAS patients, 10 ng/ml LPS, 24 hours, compound 0.03-30 μM, ELISA, FIG. 1A, read-out: IC50 for inhibition of LPS-stimulated IL-1β release) | Potency of blocking IL-1β secretion, FCAS versus control subjects ([4]; LPS-stimulated cells, FIG. 1) | Clinical inflammatory symptoms in patients with MWS (patients with MWS; daily injection) | Serum amyloid A in patients with MWS (patients with MWS; daily injection) | Urinary excretion of amyloid in patients with MWS (patients with MWS; daily injection) | Effectiveness in treating Muckle-Wells syndrome, Familial Cold Autoinflammatory Syndrome, Hyper-IgD syndrome and systemic onset Juvenile idiopathic Arthritis (patients with MWS; human, in vivo) |
| --- | --- | --- | --- | --- | --- | --- | --- | --- | --- | --- | --- | --- | --- | --- | --- | --- | --- |
| CCO[C@@H]1OC(=O)C[C@@H]1NC(=O)[C@@H]1CCCN1C(=O)[C@@H](NC(=O)c1ccc(N)c(Cl)c1)C(C)(C)C [Compound 7] | inhibited | equal potency | ~6.00 | 65 | 75 | 55 | 60 | well tolerated | about 5 | potency similar to that of PBMCs from normal subjects | inhibited | ~6.00 | equal potency |  |  |  |  |
| anakinra: recombinant human interleukin-1 receptor antagonist (rhuIL-1Ra, anakinra) |  |  |  |  |  |  |  |  |  |  |  |  |  | dramatic, rapid and sustained reduction | reduction of serum amyloid A | reduction | effective |
